Laboratory results from patent US7479540B1, “Adipomodulin and related molecules and methods” (priority 2003, dated 2009).
Several values for one entry are separate records, joined by “and”; a condition that tells them apart may be missing. Identical values can stand only once. One block for each compound: values may come before it.

What was measured:
[1] = tested on: HSL−/− adipocytes; test: Lipolysis (glycerol release) in HSL-/- adipocytes from HSL knockout mice; type: cell-based, mouse; conditions: 2 hours
Protocol: (§1) To determine whether adipomodulin acts through the classical HSL pathway, Sample 121 was tested in HSL+/+ and HSL−/− adipocytes derived from wild type and HSL knockout mice (obtained from Dr. Grant Mitchell, Sainte Justine Hospital, Montreal, Quebec, Canada), respectively. […] Lipolysis was measured as glycerol release from an adipocyte suspension. In each experiment, adipocytes were pooled from perigonadal fat of two to four 6-month-old mice of the same gender and genotype. One hundred microliters of adipocyte suspension were incubated for 2 hours in a final volume of […] of Krebs-Ringer-HEPES (30 mM) buffer (pH 7.4) supplemented with 2.5% BSA, 2.5% N6-[R-(−)-1-methyl-2-phenyl] adenosine ([…]), and 1 U/mL adenosine deaminase. In some tubes, the lipolytic beta3-adrenergic agonist CL316,243 ([…]) (Wyeth-Ayerst Research Laboratories, Princeton, N.J.) or cAMP agonist (dibutryl cAMP) were added. After a 2-hour incubation, the reaction was stopped by freezing on dry ice. The mixture was extracted with chloroform to remove triglycerides, and glycerol content was then determined by glycerol assay kit (Roche Diagnostics).

[2] = tested on: HSL+/+ adipocytes; test: Lipolysis (glycerol release) in HSL+/+ adipocytes from wild type mice; type: cell-based, mouse; conditions: for Lipolysis (nmol glycerol produced): HSL +/+, 2 hours; for stimulation of lipolysis, result in words: HSL+/+ adipocytes compared with HSL−/−
Protocol: as §1

[3] = molecular target: receptor for adipomodulin on NIH 3T3-L1 adipocytes (mouse); test: 125I-ligand binding to 3T3-L1 adipocytes at 4 C, 2 h, competitor: excess unlabeled λ- + k-light chain mix
[4] = tested on: NIH 3T3-L1 adipocytes; test: Lipolysis (glycerol) in differentiated NIH 3T3-L1 adipocytes (Example 8); type: cell-based, mouse; conditions: 0.1 mM, 4 hours, 37° C.
Protocol: (§2) Stimulation of lipolysis in differentiated 3T3-L1 cells was measured according to the procedure described in Hirsch, A. H. & Rosen, O. M., “Lipolytic stimulation modulates the subcellular distribution of hormone-sensitive lipase in 3T3-L1 cells,” J. Lipid Res., vol. 25, pp. 665-667 (1984), which is incorporated herein in its entirety. The 3T3-L1 preadipocyte cell line (from ATCC) was differentiated by treating confluent monolayers with dexamethasone 0.5 μM, 0.15 μM insulin, and methylisobutylxanthine (IBMX) 0.5 mM. After 48 hours, the cells were fed with fresh medium containing 0.15 μM insulin and maintained in culture for 24 hours. Next, the cells were maintained in insulin-free DMEM containing 10% fetal bovine serum for 4-5 days. On the day of experimentation, the differentiated cells were incubated in serum-free DMEM containing 0.2% fatty acid free BSA and 5 mM glucose and treated with adipomodulin, adipomodulin elution buffer, or IBMX at 37° C. for 4 hours. […] The levels of cAMP in the cytosol and the supernatant were measured by competitive radioimmunoassay. […] After several washing steps, the complexes of radioactive cAMP-antibody are counted in a gamma counter. […]

[5] = tested on: cAMP; test: cAMP radioimmunoassay in differentiated NIH 3T3-L1 adipocytes; type: cell-based, mouse
Protocol: as §2

Compound: CC(C)NCC(O)c1ccc(O)c(O)c1 (stereo not drawn) [Isoproterenol, isoproterenol]
- Lipolysis (nmol glycerol produced) ([1]; 10 uM): 0.9 ± 0.2 nmol glycerol produced
- Lipolysis (nmol glycerol produced) ([2]; 10 uM): 5.8 ± 1.0 nmol glycerol produced
- stimulation of lipolysis, result in words [2]: stimulated lipolysis most dramatically in HSL+/+ adipocytes

Compound: C[C@H](Cc1ccc2c(c1)OC(C(=O)[O-])(C(=O)[O-])O2)NC[C@H](O)c1cccc(Cl)c1.[Na+].[Na+] [CL316, 243]
- Lipolysis (nmol glycerol produced) ([1]; 10 uM): 1.1 ± 0.3 nmol glycerol produced
- Lipolysis (nmol glycerol produced) ([2]; 10 uM): 6.2 ± 1.1 nmol glycerol produced

- Binding, CPM/well [3]: 3230 CPM/well and 3840 CPM/well
Compound: adipomodulin (Sample 122)

Compound: CCCC(=O)Nc1ncnc2c1ncn2[C@@H]1O[C@@H]2COP(=O)(O)O[C@H]2[C@H]1OC(=O)CCC [Dibutryl cAMP, dibutryl cAMP]
- Lipolysis (nmol glycerol produced) ([1]; 1 mM): 1.1 ± 0.1 nmol glycerol produced
- Lipolysis (nmol glycerol produced) ([2]; 1 mM): 7.6 ± 1.0 nmol glycerol produced
- stimulation of lipolysis, result in words [2]: stimulated lipolysis most dramatically in HSL+/+ adipocytes

Compound: CC(C)Cn1c(=O)n(C)c(=O)c2[nH]cnc21 [IBMX, methylisobutylxanthine]
- Lipolysis [4]: 3400 ± 50 pmol glycerol/well
- cAMP ([5]; 0.1 mM, 4 hours, 37° C.): 69 ± 4 fmol/well
- effect on cAMP, result in words ([5]; versus medium control and elution buffer controls): significant stimulation of cAMP
